# Laboratory results taken from patent publication US5219884A, “Immunosuppressant” (Taito Co., Ltd., priority 1990, dated 1993).
# Like-named read-outs stand apart in the source and are kept apart here.
# What was measured:
# [1] = system: IL2-dependent mouse cell line CTLL-2; test: suppression of IL-2 induced 3H-thymidine incorporation of CTLL-2; assay type: cell-based; settings: 72 hrs, second run (control 30168 cpm)
# [2] = body weight, wet weight of thymus and spleen, number of spleen cells in SRBC-immunized mice; assay type: in vivo, mouse; settings: Experiment 2; 10 mg/kg/day
# Method: (§1) Males 5- to 7-week-old BALB/c mice were immunized with sheep red blood cells (SRBC), and the spleen was resected three or four days later. By counting the plaque forming cells (PFC), suppressive effect on the production of the anti-sheep red blood cell antibody was examined as follows.
# (§2) BALB/c mice were immunized with SRBC (1×10^7 cells/mouse, intravenous administration), and ISP-I in the Example 1 was administered intraperitoneally for 4 consecutive days from the day of immunization. Four days after immunization (the next day of the final administration), the spleen was resected and the anti-sheep red blood cell antibody-producing cells were determined by the direct plaque method. At the same time the body weight of the mouse, wet weight of the thymus and the spleen, and numbers of spleen cells were also determined.
# (§3) BALB/c mice were immunized with SRBC (5×10^7 cells/mouse, intravenous administration), and the compound in the Example 5 was administered intraperitoneally for 4 consecutive days from the day of immunization. Four days after immunization (the next day of the final administration), the spleen was resected, and the anti-sheep red blood cell antibody-producing cells were determined by the direct plaque method. At the same time, the body weight of the mouse, wet weight of the thymus and the spleen, and numbers of spleen cells were also determined.
# [3] = system: anti-sheep red blood cell antibody production in BALB/c mice; test: suppression of mouse anti-sheep red blood cell antibody production (PFC); assay type: in vivo; settings: Experiment 2; 10 mg/kg/day i.p., 4 days
# Method: as §1, §2, §3
# [4] = system: human allogenic MLR (peripheral blood lymphocytes); test: human allogenic MLR-suppressive activity; assay type: cell-based
# Method: The human allogenic MLR-suppressive activity was assayed as follows:
# Human peripheral blood lymphocytes obtained by Ficoll-Paque density gradient centrifugation of normal human peripheral blood were suspended in the RPMI1640 medium supplemented with 10% FCS, placed in plastic dishes, and incubated at 37° C. in an atmosphere of 5% carbon dioxide for 2 hours. After termination of incubation, the supernatant after gentle pipetting was harvested and centrifuged (1000 rpm, for 5 minutes) to obtain plastic-nonadherent cells. The plastic-nonadherent cells were allowed to pass through a nylon-wool column to give nylon-nonadherent cells, and the concentration of the cell suspension was adjusted to 4×10^6 cells/ml by using the RPMI1640 culture medium supplemented with 10% FCS, and used as the responder cell suspension.
# The plastic-adherent cells were removed from the plastic dish by vigorous pipetting after addition of phosphate buffered saline supplemented with 5% FCS and 0.02% disodium ethylenediamine-tetraacetic acid (EDTA). The plastic-adherent cells were treated with 40 μg/ml of mitomycin C at 37° C. for 60 minutes, washed three times, and suspended to the concentration of 4×10^6 cells/ml in the RPMI1640 culture medium supplemented with 10% FCS. The resultant suspension was used as the stimulator cell suspension. Fifty μl of the responder cell suspension from the donor A or C was mixed with 50 μl of the stimulator cell suspension from the donor B or D, to which 100 μl of the test substance was added, and cultured at 37° C. in the an atmosphere 5% carbon dioxide for 5 days.
# After termination of the culture, 1.0 μCi/well of ^3 H-thymidine was added, and after 18 hours of culture, the cells were harvested by a cell-harvester. The radioactivity incorporated into the cells was measured by a liquid scintillation counter as the index of blastogenic response of lymphocytes in human allogenic MLR. The suppression of human allogenic MLR was evaluated by calculating the percent suppression by the following formula. [formula]
smiles,measurement,setting,value
CCCCCCC(=O)CCCCCCCCCC(O)C(O)C(N)(CO)C(=O)O (centres unmarked) [Example 5],3H-thymidine uptake,[1]; 0.1 μg/ml,26108 cpm
same,3H-thymidine uptake,[1]; 1 μg/ml,1532 cpm
same,inhibition at 0.1 µg/mL,"[1]; Mus musculus, CTLL-2, 0.1 μg/ml, read-out: Suppression",13.5%
same,inhibition at 1 µg/mL,"[1]; Mus musculus, CTLL-2, 1 μg/ml",95.1%
same,Body weight,[2],24 ± 1 g
same,Number of spleen cells,[2],2.3 ± 0.3 × 10^8 cell
same,Wet weight spleen,[2],239 ± 40 mg
same,Wet weight thymus,[2],52 ± 5 mg
same,Number of PFC per 1 × 10^7 cell,[3],5.6 ± 1.7 × 10^3 /1 × 10^7 cell
same,Number of PFC per spleen,[3],12.9 ± 3.9 × 10^4 /spleen
same,inhibition at 0.0001 µg/mL,"[4]; Homo sapiens, Lymphocyte, donor A/donor B, 0.0001 μg/ml, read-out: Suppression",14.4%
same,inhibition at 0.001 µg/mL,"[4]; Homo sapiens, Lymphocyte, donor A/donor B, 0.001 μg/ml, read-out: Suppression",42.8%
same,inhibition at 0.01 µg/mL,"[4]; Homo sapiens, Lymphocyte, donor A/donor B, 0.01 μg/ml, read-out: Suppression",59.4%
same,inhibition at 0.1 µg/mL,"[4]; Homo sapiens, Lymphocyte, donor A/donor B, 0.1 μg/ml, read-out: Suppression",87.1%
same,inhibition at 1 µg/mL,"[4]; Homo sapiens, Lymphocyte, donor A/donor B, 1 μg/ml, read-out: Suppression",85.4%
same,inhibition at 10 µg/mL,"[4]; Homo sapiens, Lymphocyte, donor A/donor B, 10 μg/ml, read-out: Suppression",99.8%
same,inhibition at 10 pg/mL,"[4]; Homo sapiens, Lymphocyte, donor C/donor D, 0.00001 μg/ml, read-out: Suppression",32.3%
same,inhibition at 0.0001 µg/mL,"[4]; Homo sapiens, Lymphocyte, donor C/donor D, 0.0001 μg/ml, read-out: Suppression",54.7%
same,inhibition at 0.001 µg/mL,"[4]; Homo sapiens, Lymphocyte, donor C/donor D, 0.001 μg/ml, read-out: Suppression",48.3%
same,inhibition at 0.01 µg/mL,"[4]; Homo sapiens, Lymphocyte, donor C/donor D, 0.01 μg/ml, read-out: Suppression",58.1%
same,inhibition at 0.1 µg/mL,"[4]; Homo sapiens, Lymphocyte, donor C/donor D, 0.1 μg/ml, read-out: Suppression",84.7%
same,inhibition at 1 µg/mL,"[4]; Homo sapiens, Lymphocyte, donor C/donor D, 1 μg/ml, read-out: Suppression",80.5%
same,IC50,"[4]; Lymphocyte, human allogenic MLR, read-out: 50%-inhibition concentration (IC50)",0.35 ng/mL
same,3H-thymidine uptake,"[4]; donor A/donor B, 0.0001 μg/ml",20789 cpm
same,3H-thymidine uptake,"[4]; donor A/donor B, 0.001 μg/ml",14690 cpm
same,3H-thymidine uptake,"[4]; donor A/donor B, 0.01 μg/ml",11130 cpm
same,3H-thymidine uptake,"[4]; donor A/donor B, 0.1 μg/ml",5181 cpm
same,3H-thymidine uptake,"[4]; donor A/donor B, 1 μg/ml",5548 cpm
same,3H-thymidine uptake,"[4]; donor A/donor B, 10 μg/ml",2439 cpm
same,3H-thymidine uptake,"[4]; donor C/donor D, 0.00001 μg/ml",11827 cpm
same,3H-thymidine uptake,"[4]; donor C/donor D, 0.0001 μg/ml",7941 cpm
same,3H-thymidine uptake,"[4]; donor C/donor D, 0.001 μg/ml",9057 cpm
same,3H-thymidine uptake,"[4]; donor C/donor D, 0.01 μg/ml",7346 cpm
same,3H-thymidine uptake,"[4]; donor C/donor D, 0.1 μg/ml",2746 cpm
same,3H-thymidine uptake,"[4]; donor C/donor D, 1 μg/ml",3466 cpm
